target: Full length human TBK1 (Homo sapiens (Human), UniProt Q9UHD2); experiment: Inhibition of TBK1 Enzyme (Example A); assay type: biochemical; conditions: -log(IC50), IC50 molar; 3 nM TBK1, 25 μM ATP, 60 min RT
Procedure: Full length human TBK1 with an N-terminal His-tag was cloned into the pFastBacl vector and was transfected into Sf9 cells. 72 hours later the virus was harvested and amplified through two additional rounds of infections. Then 400 mL of the resulting virus stock was used to infect 10 L of Sf9 cells at a density of 2×10^6 cells/mL. Cell pellets were harvested 48 hours post infection and were lysed by freeze-thaw, homogenization and sonication in binding buffer (25 mM Tris pH7.6, 1 M NaCl, 10 mM imidazole, 0.5 mM TCEP) plus 0.1% Triton X-100 and complete protease inhibitor cocktail. The lysate was spun and the supernatant was purified with a HisTrap FF crude and a Superdex 200 pg column.
TBK1 inhibition is determined using a 384 well plate format in buffer containing 20 mM Hepes, pH 7.4, 10 mM MgCl2, 1 mM EDTA, 0.01% Brij-L23, 1 mM DTT. Each test compound is prepared in DMSO using 2.5-fold serial dilutions for 11 data points, which are added to the buffer so that each dilution contains 1% DMSO. To each well is added 2 μL of 1 μM 5FAM-DRHDSGLDSMKDE-NH2 (in buffer), 2 μL of diluted test compound (1% DMSO in buffer), and 5 μL of 3 nM TBK1 and 25 μM ATP (in buffer). The reaction mixture is incubated at RT for 60 min, and quenched by adding 20 mM Hepes, pH 7.4, 10 mM MgCl2, 1 mM EDTA, 0.01% Brij-L23, 1 mM DTT+25 mM EDTA. To quantify the fluorescent-labeled substrate and product following reaction, the test plate is loaded on a Caliper LC-3000, which measures percent of conversion by microfluidic-based separation. Corresponding IC50 values are calculated by non-linear curve fitting of the compound concentrations and percent of inhibition to the standard IC50 equation and reported as pIC50, i.e., −log(IC50), where IC50 is the molar concentration.

Full length human TBK1, sequence (Q9UHD2 whole entry): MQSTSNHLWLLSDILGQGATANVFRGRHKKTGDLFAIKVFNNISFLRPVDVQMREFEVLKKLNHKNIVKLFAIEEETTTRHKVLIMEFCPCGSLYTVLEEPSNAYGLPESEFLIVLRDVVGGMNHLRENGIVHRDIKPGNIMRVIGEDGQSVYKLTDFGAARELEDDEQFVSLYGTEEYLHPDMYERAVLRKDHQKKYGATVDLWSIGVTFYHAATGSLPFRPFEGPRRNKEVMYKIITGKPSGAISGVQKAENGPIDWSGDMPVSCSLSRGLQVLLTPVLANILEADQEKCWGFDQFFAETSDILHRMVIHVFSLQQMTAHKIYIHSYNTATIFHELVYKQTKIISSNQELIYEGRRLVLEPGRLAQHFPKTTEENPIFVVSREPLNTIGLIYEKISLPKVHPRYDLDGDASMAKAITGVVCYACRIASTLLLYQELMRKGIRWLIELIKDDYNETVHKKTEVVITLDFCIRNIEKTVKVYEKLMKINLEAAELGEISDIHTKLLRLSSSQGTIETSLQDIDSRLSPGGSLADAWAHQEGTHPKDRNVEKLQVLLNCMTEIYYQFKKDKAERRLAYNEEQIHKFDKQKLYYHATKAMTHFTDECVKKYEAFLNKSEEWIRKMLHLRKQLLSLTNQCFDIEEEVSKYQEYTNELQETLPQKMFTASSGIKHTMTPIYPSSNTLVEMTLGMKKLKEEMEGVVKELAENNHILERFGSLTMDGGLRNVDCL

Row | Structure (SMILES) | TBK1 Inhibition (pIC50)
1 | COCC(Nc1cc(-c2cnc(NC(=O)C3CC3)cn2)cnc1C#N)C(=O)N(C)C (stereo not drawn) [Example 42, N-(5-(6-cyano-5-((1-(dimethylamino)-3-methoxy-1-oxopropan-2-yl)amino)pyridin-3-yl)pyrazin-2-yl)cyclopropanecarboxamide] | 6.8
2 | CC(Nc1cc(-c2cnc(NC(=O)C3CC3)cn2)cnc1C#N)C(=O)N(C)CC#N (stereo not drawn) [Example 43, N-(5-(6-cyano-5-((1-((cyanomethyl)(methyl)amino)-1-oxopropan-2-yl)amino)pyridin-3-yl)pyrazin-2-yl)cyclopropanecarboxamide] | 7.7
3 | CN(C)C(=O)C(CC#N)Nc1cc(-c2cnc(NC(=O)C3CC3)cn2)cnc1C#N (stereo not drawn) [Example 44, N-(5-(6-cyano-5-((3-cyano-1-(dimethylamino)-1-oxopropan-2-yl)amino)pyridin-3-yl)pyrazin-2-yl)cyclopropanecarboxamide] | 6.2
4 | N#Cc1ncc(-c2cnc(NC(=O)C3CC3)cn2)cc1NCC(=O)N1CCC[C@@H]1C#N [Example 45, (R)-N-(5-(6-cyano-5-((2-(2-cyanopyrrolidin-1-yl)-2-oxoethyl)amino)pyridin-3-yl)pyrazin-2-yl)cyclopropanecarboxamide] | 7.5
5 | CC(Nc1cc(-c2cnc(NC(=O)C3CC3)cn2)cnc1C#N)C(=O)N(C)CC(F)F (stereo not drawn) [Example 46, N-(5-(6-cyano-5-((1-((2,2-difluoroethyl)(methyl)amino)-1-oxopropan-2-yl)amino)pyridin-3-yl)pyrazin-2-yl)cyclopropanecarboxamide] | 8.0
6 | CC(Nc1cc(-c2cnc(NC(=O)C3CC3)cn2)cnc1C#N)C(=O)N(C)CCF (stereo not drawn) [Example 47, N-(5-(6-cyano-5-((1-((2-fluoroethyl)(methyl)amino)-1-oxopropan-2-yl)amino)pyridin-3-yl)pyrazin-2-yl)cyclopropanecarboxamide] | 7.7
7 | N#Cc1ncc(-c2cnc(NC(=O)C3CC3)cn2)cc1NCC(=O)N1CCC[C@@H]1C(F)(F)F [Example 48, (R)-N-(5-(6-cyano-5-((2-oxo-2-(2-(trifluoromethyl)pyrrolidin-1-yl)ethyl)amino)pyridin-3-yl)pyrazin-2-yl)cyclopropanecarboxamide] | 8.2
8 | CN(CC#N)C(=O)CNc1cc(-c2cnc(NC(=O)C3CC3)cn2)cnc1C#N [Example 49, N-(5-(6-cyano-5-((2-((cyanomethyl)(methyl)amino)-2-oxoethyl)amino)pyridin-3-yl)pyrazin-2-yl)cyclopropanecarboxamide] | 7.2
9 | C[C@H](Nc1cc(-c2cnc(NC(=O)C3CC3)cn2)cnc1C#N)C(=O)N(C)CC#N [Example 50, (S)-N-(5-(6-cyano-5-((1-((cyanomethyl)(methyl)amino)-1-oxopropan-2-yl)amino)pyridin-3-yl)pyrazin-2-yl)cyclopropanecarboxamide] | 7.9
10 | CC[C@H](Nc1cc(-c2cnc(NC(=O)C3CC3)cn2)cnc1C#N)C(=O)N(C)CC#N [Example 51, (S)-N-(5-(6-cyano-5-((1-((cyanomethyl)(methyl)amino)-1-oxobutan-2-yl)amino)pyridin-3-yl)pyrazin-2-yl)cyclopropanecarboxamide] | 7.4
11 | COCC[C@H](Nc1cc(-c2cnc(NC(=O)C3CC3)cn2)cnc1C#N)C(=O)N(C)CCO [Example 52, (S)-N-(5-(6-cyano-5-((1-((2-hydroxyethyl)(methyl)amino)-4-methoxy-1-oxobutan-2-yl)amino)pyridin-3-yl)pyrazin-2-yl)cyclopropanecarboxamide] | 6.5
12 | C[C@H](Nc1cc(-c2cnc(NC(=O)C3CC3)cn2)cnc1C#N)C(=O)N(C)CC(F)F [Example 53, (S)-N-(5-(6-cyano-5-((1-((2,2-difluoroethyl)(methyl)amino)-1-oxopropan-2-yl)amino)pyridin-3-yl)pyrazin-2-yl)cyclopropanecarboxamide] | 8.6

Source: US9994547B2, “Heteroarylamide inhibitors of TBK1” (Takeda Pharmaceutical Company Limited, priority 2014, dated 2018)
